Reference: BindingDB's records for doi:10.1073/pnas.0708800104 (University of Oxford, 2007)

Assays:
[1] = Inhibition of IGF1R-dependent tumor cell growth in human MCF7 cells
[2] = target: Proto-oncogene tyrosine-protein kinase Src (Homo sapiens) (UniProt P12931); assay: Inhibition of cSrc
Proto-oncogene tyrosine-protein kinase Src (Homo sapiens), sequence (P12931 whole entry, looked up): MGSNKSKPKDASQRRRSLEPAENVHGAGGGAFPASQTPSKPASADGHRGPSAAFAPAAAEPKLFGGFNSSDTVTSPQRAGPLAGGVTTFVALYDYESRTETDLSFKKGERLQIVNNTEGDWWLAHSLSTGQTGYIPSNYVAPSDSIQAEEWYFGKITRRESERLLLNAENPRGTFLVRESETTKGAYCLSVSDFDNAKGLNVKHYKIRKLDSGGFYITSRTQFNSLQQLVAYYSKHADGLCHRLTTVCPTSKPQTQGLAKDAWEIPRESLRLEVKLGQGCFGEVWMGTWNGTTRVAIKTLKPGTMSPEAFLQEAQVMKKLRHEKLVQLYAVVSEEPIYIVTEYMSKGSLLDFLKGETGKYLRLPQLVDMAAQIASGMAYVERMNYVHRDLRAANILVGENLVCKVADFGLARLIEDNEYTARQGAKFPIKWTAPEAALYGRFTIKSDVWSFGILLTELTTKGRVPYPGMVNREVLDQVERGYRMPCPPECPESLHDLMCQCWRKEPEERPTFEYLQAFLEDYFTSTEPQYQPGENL

COc1ccc(Cl)cc1NC(=O)Nc1cc(C)nc2ccccc12 [TCMDC-125497]
IC50 [1]: 8 µM

O=C1Nc2ccccc2/C1=C\c1c(Cl)[nH]c2ccccc12
IC50 (Inhibition of Cdk5): 25 µM

CCN(CC)CCCCNc1ncc2cc(-c3cc(OC)cc(OC)c3)c(NC(=O)NC(C)(C)C)nc2n1
IC50 [2]: 19.8 µM
